In US20240116985A1, “STAPLED PEPTIDES AND METHODS THEREOF” (priority 2020, published 2024):
≈ marks a conversion by molar mass, not a printed value.

Test: Solubility in PBS
Type: physicochemical
Details: not given
Protocol: After ultracentrifugation of the PBS solution, the supernatant was analyzed by HPLC and compared to an HPLC injection 50 μM peptide DMSO solution. Solubility was determined by: [(Area of PBS peak)/(Area of DMSO peak)]*50 uM.

Point of comparison: CC(=O)N1CCC[C@]12CC=CCCCC1(CCCC=CCCCOC(=O)N3CC[C@@](C(=O)N[C@@H](Cc4ccccc4C(F)(F)F)C(=O)N[C@@H](Cc4csc5ccccc45)C(=O)N[C@@H](CO)C(N)=O)(C3)NC(=O)[C@H](CC(C)C)NC(=O)[C@H](Cc3ccccc3)NC(=O)[C@H](C)NC(=O)[C@H](C)NC(=O)[C@H](Cc3cccc(C(=O)O)c3)NC(=O)[C@H](CC(=O)O)NC1=O)NC(=O)[C@H](CC(C)(C)C)NC(=O)[C@H](CC(=O)O)NC2=O (stereo partly drawn) [I-1336, PL3-Asp-Npg-B5-Asp-3COOHF-Ala-Ala-Phe-Leu-PyrS2-2F3MeF-BztA-Ser-NH2], “Solubility” value 10 µM (≈ 20.1 µg/mL). Against it:
- CC(=O)N1CCC[C@]12CC=CCCCC1(CCCC=CCCCOC(=O)N3CC[C@@](C(=O)N[C@@H](Cc4ccccc4Cl)C(=O)N[C@@H](Cc4csc5ccccc45)C(=O)N[C@H](CO)[C@@H](C)O)(C3)NC(=O)[C@H](CC(C)C)NC(=O)[C@H](Cc3ccccc3)NC(=O)[C@H](C)NC(=O)[C@H](C)NC(=O)[C@H](Cc3cccc(C(=O)O)c3)NC(=O)[C@H](CC(=O)O)NC1=O)NC(=O)[C@H](CC(C)(C)C)NC(=O)[C@H](CC(=O)O)NC2=O (stereo partly drawn) [I-1334, PL3-Asp-Npg-B5-Asp-3COOHF-Ala-Ala-Phe-Leu-PyrS2-2C1F-BztA-Thro1] — the same, 10 µM (≈ 19.8 µg/mL)
- CC(=O)N1CCC[C@]12CC=CCCCC1(CCCC=CCCCOC(=O)N3CC[C@@](C(=O)N[C@@H](Cc4ccccc4C(F)(F)F)C(=O)N[C@@H](Cc4csc5ccccc45)C(=O)N[C@H](CO)[C@@H](C)O)(C3)NC(=O)[C@H](CC(C)C)NC(=O)[C@H](Cc3ccccc3)NC(=O)[C@H](C)NC(=O)[C@H](C)NC(=O)[C@H](Cc3cccc(C(=O)O)c3)NC(=O)[C@H](CC(=O)O)NC1=O)NC(=O)[C@H](CC(C)(C)C)NC(=O)[C@H](CC(=O)O)NC2=O (stereo partly drawn) [I-1337, PL3-Asp-Npg-B5-Asp-3COOHF-Ala-Ala-Phe-Leu-PyrS2-2F3MeF-BztA-Thro1] — the same, 10 µM (≈ 20.2 µg/mL)
- CC(=O)N1CCC[C@]12CC=CCCCC1(CCCC=CCCCOC(=O)N3CC[C@@](C(=O)N[C@@H](Cc4ccccc4Cl)C(=O)N[C@@H](Cc4csc5ccccc45)C(=O)N[C@@H](CCC(N)=O)C(N)=O)(C3)NC(=O)[C@H](Cc3ccccc3)NC(=O)[C@H](Cc3ccccc3)NC(=O)[C@H](C)NC(=O)[C@H](C)NC(=O)[C@H](Cc3cccc(C(=O)O)c3)NC(=O)[C@H](CC(=O)O)NC1=O)NC(=O)[C@H](CC(C)(C)C)NC(=O)[C@H](CC(=O)O)NC2=O (stereo partly drawn) [I-1338, PL3-Asp-Npg-B5-Asp-3COOHF-Ala-Ala-Phe-Phe-PyrS2-2C1F-BztA-Gln-NH2] — the same, 10 µM (≈ 20.6 µg/mL)
- CC(=O)N1CCC[C@]12CC=CCCCC1(CCCC=CCCCOC(=O)N3CC[C@@](C(=O)N[C@@H](Cc4ccccc4Cl)C(=O)N[C@@H](Cc4csc5ccccc45)C(=O)N[C@@H](CO)C(N)=O)(C3)NC(=O)[C@H](Cc3ccccc3)NC(=O)[C@H](Cc3ccccc3)NC(=O)[C@H](C)NC(=O)[C@H](C)NC(=O)[C@H](Cc3cccc(C(=O)O)c3)NC(=O)[C@H](CC(=O)O)NC1=O)NC(=O)[C@H](CC(C)(C)C)NC(=O)[C@H](CC(=O)O)NC2=O (stereo partly drawn) [I-1339, PL3-Asp-Npg-B5-Asp-3COOHF-Ala-Ala-Phe-Phe-PyrS2-2C1F-BztA-Ser-NH2] — the same, 10 µM (≈ 20.1 µg/mL)
- CC(=O)N1CCC[C@]12CC=CCCCC1(CCCC=CCCCOC(=O)N3CC[C@@](C(=O)N[C@@H](Cc4ccccc4Cl)C(=O)N[C@@H](Cc4csc5ccccc45)C(=O)N[C@H](CO)[C@@H](C)O)(C3)NC(=O)[C@H](Cc3ccccc3)NC(=O)[C@H](Cc3ccccc3)NC(=O)[C@H](C)NC(=O)[C@H](C)NC(=O)[C@H](Cc3cccc(C(=O)O)c3)NC(=O)[C@H](CC(=O)O)NC1=O)NC(=O)[C@H](CC(C)(C)C)NC(=O)[C@H](CC(=O)O)NC2=O (stereo partly drawn) [I-1340, PL3-Asp-Npg-B5-Asp-3COOHF-Ala-Ala-Phe-Phe-PyrS2-2C1F-BztA-Thro1] — the same, 10 µM (≈ 20.2 µg/mL)
- CC(=O)N1CCC[C@]12CC=CCCCC1(CCCC=CCCCOC(=O)N3CC[C@@](C(=O)N[C@H](Cc4ccccc4)C(=O)N[C@@H](Cc4csc5ccccc45)C(=O)N[C@@H](CCC(N)=O)C(N)=O)(C3)NC(=O)[C@H](CC(N)=O)NC(=O)[C@H](Cc3ccccc3)NC(=O)[C@H](C)NC(=O)[C@H](C)NC(=O)[C@H](CC(=O)O)NC(=O)[C@H](CC(=O)O)NC1=O)NC(=O)[C@H](CC(C)(C)C)NC(=O)[C@H](CC(=O)O)NC2=O (stereo partly drawn) [I-1346, PL3-Asp-Npg-B5-Asp-Asp-Ala-Ala-Phe-Asn-PyrS2-dPhe-BztA-Gln-NH2] — 5-fold higher, 50 µM (≈ 95.6 µg/mL)

Same assay, conditions: Solubility (uM)

Point of comparison: CC(=O)N1CCC[C@]12CC=CCCCC1(CCCC=CCCCOC(=O)N3CC[C@@](C(=O)N[C@@H](CCc4ccccc4)C(=O)N[C@@H](Cc4csc5ccccc45)C(=O)N[C@@H](CCC(N)=O)C(N)=O)(C3)NC(=O)[C@H](CC(C)C)NC(=O)[C@H](Cc3ccccc3)NC(=O)[C@H](C)NC(=O)[C@H](C)NC(=O)[C@H](CC(=O)O)NC(=O)[C@H](CC(=O)O)NC1=O)NC(=O)[C@H](CC(C)(C)C)NC(=O)[C@H](CC(=O)O)NC2=O (stereo partly drawn) [I-1350, PL3-Asp-Npg-B5-Asp-Asp-Ala-Ala-Phe-Leu-PyrS2-hPhe-BztA-Gln-NH2], solubility at 15 min 28 µM (≈ 53.9 µg/mL). Against it:
- CC(=O)N1CCC[C@]12CC=CCCCC1(CCCC=CCCCOC(=O)N3CC[C@@](C(=O)N[C@@H](Cc4ccccc4C(F)(F)F)C(=O)N[C@@H](Cc4csc5ccccc45)C(=O)N[C@@H](CCC(N)=O)C(N)=O)(C3)NC(=O)[C@H](CC(C)C)NC(=O)[C@H](Cc3ccccc3)NC(=O)[C@H](C)NC(=O)[C@H](C)NC(=O)[C@H](Cc3cccc(C(=O)O)c3)NC(=O)[C@H](CC(=O)O)NC1=O)NC(=O)[C@H](CC(C)(C)C)NC(=O)[C@H](CC(=O)O)NC2=O (stereo partly drawn) [I-1335, PL3-Asp-Npg-B5-Asp-3COOHF-Ala-Ala-Phe-Leu-PyrS2-2F3MeF-BztA-Gln-NH2] — 2.5-fold lower, 11 µM (≈ 22.6 µg/mL)
- CC(=O)N1CCC[C@]12CC=CCCCC1(CCCC=CCCCOC(=O)N3CC[C@@](C(=O)N[C@@H](Cc4cccs4)C(=O)N[C@@H](Cc4csc5ccccc45)C(=O)N[C@@H](CCC(N)=O)C(N)=O)(C3)NC(=O)[C@H](CC(C)C)NC(=O)[C@H](Cc3ccccc3)NC(=O)[C@H](C)NC(=O)[C@H](C)NC(=O)[C@H](CC(=O)O)NC(=O)[C@H](CC(=O)O)NC1=O)NC(=O)[C@H](CC(C)(C)C)NC(=O)[C@H](CC(=O)O)NC2=O (stereo partly drawn) [I-1344, PL3-Asp-Npg-B5-Asp-Asp-Ala-Ala-Phe-Leu-PyrS2-2Thi-BztA-Gln-NH2] — 1.6-fold higher, 44 µM (≈ 84.4 µg/mL)
- CC(=O)N1CCC[C@]12CC=CCCCC1(CCCC=CCCCOC(=O)N3CC[C@@](C(=O)N[C@@H](Cc4cccs4)C(=O)N[C@@H](Cc4csc5ccccc45)C(=O)N[C@@H](CCC(N)=O)C(N)=O)(C3)NC(=O)[C@H](Cc3ccccc3)NC(=O)[C@H](Cc3ccccc3)NC(=O)[C@H](C)NC(=O)[C@H](C)NC(=O)[C@H](CC(=O)O)NC(=O)[C@H](CC(=O)O)NC1=O)NC(=O)[C@H](CC(C)(C)C)NC(=O)[C@H](CC(=O)O)NC2=O (stereo partly drawn) [I-1345, PL3-Asp-Npg-B5-Asp-Asp-Ala-Ala-Phe-Phe-PyrS2-2Thi-BztA-Gln-NH2] — within 1.5-fold, 37 µM (≈ 72.2 µg/mL)
- CC(=O)N1CCC[C@]12CC=CCCCC1(CCCC=CCCCOC(=O)N3CC[C@@](C(=O)N[C@@H](CCc4ccccc4)C(=O)N[C@@H](Cc4csc5ccccc45)C(=O)N[C@@H](CCC(N)=O)C(N)=O)(C3)NC(=O)[C@H](Cc3ccccc3)NC(=O)[C@H](Cc3ccccc3)NC(=O)[C@H](C)NC(=O)[C@H](C)NC(=O)[C@H](CC(=O)O)NC(=O)[C@H](CC(=O)O)NC1=O)NC(=O)[C@H](CC(C)(C)C)NC(=O)[C@H](CC(=O)O)NC2=O (stereo partly drawn) [I-1351, PL3-Asp-Npg-B5-Asp-Asp-Ala-Ala-Phe-Phe-PyrS2-hPhe-BztA-Gln-NH2] — 2-fold lower, 14 µM (≈ 27.4 µg/mL)
